Experimental data taken from publication PMC9307952, “Lipoate protein ligase B primarily recognizes the C8-phosphopantetheine arm of its donor substrate and weakly binds the acyl carrier protein” (The Journal of Biological Chemistry, 2022).

Tests used:
MmLipT2 (mice LipT2) = MmLipT2 (mice LipT2) (Mus musculus, UniProt Q9D009); conditions: 75 μM C8-CoA, 25 μM GcvH, 50 mM Tris-HCl, 500 mM NaCl, pH 8.0, 37 °C
E. coli LipB (EcLipB) = E. coli LipB (EcLipB) (Escherichia coli, UniProt P60720); conditions: CoA:LipB 10:1 (STD, 283 K) or 8:1 (31P, 298 K), 50 mM Tris, 200 mM NaCl, pH 7.8
E. coli LipB (EcLipB), sequence (P60720 whole entry): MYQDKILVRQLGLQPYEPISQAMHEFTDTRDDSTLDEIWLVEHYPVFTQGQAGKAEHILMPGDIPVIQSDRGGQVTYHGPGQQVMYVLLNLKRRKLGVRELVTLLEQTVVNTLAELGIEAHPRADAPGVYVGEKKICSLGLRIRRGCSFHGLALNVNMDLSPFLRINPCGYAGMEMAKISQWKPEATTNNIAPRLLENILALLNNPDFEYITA

MmLipT2 (mice LipT2), sequence (Q9D009 whole entry): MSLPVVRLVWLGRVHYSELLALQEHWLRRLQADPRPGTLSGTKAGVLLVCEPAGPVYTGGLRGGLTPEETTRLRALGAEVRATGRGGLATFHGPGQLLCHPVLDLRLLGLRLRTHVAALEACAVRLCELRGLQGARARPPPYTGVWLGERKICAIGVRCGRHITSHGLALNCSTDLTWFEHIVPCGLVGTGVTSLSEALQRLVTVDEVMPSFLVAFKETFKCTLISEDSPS

In the case of `CCCCCCCC(=O)SCCNC(=O)CCNC(=O)[C@H](O)C(C)(C)COP(=O)(O)OP(=O)(O)OC[C@H]1O[C@@H](n2cnc3c(N)ncnc32)[C@H](O)[C@@H]1OP(=O)(O)O` [C8-CoA], the “octanoyl transfer to E. coli GcvH, SDS-PAGE band shift and HPLC” value (MmLipT2 (mice LipT2)) is reported as “MmLipT2 also successfully converted E. coli GcvH using C8-CoA as a donor substrate”.

For `CC(C)(COP(=O)(O)OP(=O)(O)OC[C@H]1O[C@@H](n2cnc3c(N)ncnc32)[C@H](O)[C@@H]1OP(=O)(O)O)[C@@H](O)C(=O)NCCC(=O)NCCS` [CoA], the “1H STD NMR; 31P NMR” value (E. coli LipB (EcLipB)) was “suggesting binding of the adenosine ring”.
